{"source": "patent US8106085B2", "about": "“Indoline-substituted pyrazoline derivatives, their preparation and use as medicaments” (Laboratorios Del Dr. Esteve, S.A., priority 2005, dated 2012)", "key": {"CB1 receptor": {"molecular_target": "T1, CB1 receptor (Homo sapiens, UniProt P21554)", "T1 construct": "purchased Receptor Biology, Inc", "T1 sequence (P21554 whole entry)": "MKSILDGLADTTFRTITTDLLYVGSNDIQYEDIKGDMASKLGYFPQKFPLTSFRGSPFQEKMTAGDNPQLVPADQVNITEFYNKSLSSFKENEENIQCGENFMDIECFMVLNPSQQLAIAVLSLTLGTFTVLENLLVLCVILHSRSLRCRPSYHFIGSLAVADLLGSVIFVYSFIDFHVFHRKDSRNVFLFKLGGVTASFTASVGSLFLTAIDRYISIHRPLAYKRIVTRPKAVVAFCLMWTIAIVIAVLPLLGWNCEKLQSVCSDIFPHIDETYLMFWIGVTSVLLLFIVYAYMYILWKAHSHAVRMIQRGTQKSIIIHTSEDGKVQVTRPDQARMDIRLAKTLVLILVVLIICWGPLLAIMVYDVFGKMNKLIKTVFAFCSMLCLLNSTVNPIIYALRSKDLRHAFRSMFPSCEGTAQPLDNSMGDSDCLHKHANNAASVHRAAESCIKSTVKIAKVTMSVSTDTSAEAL", "assay": "In-vitro determination of affinity to CB1/CB2 receptors (radioligand [3H]-CP55940)", "conditions": "transfected human receptor, binding", "method": "Pharmacological Data: Pharmacological Methods I. In-Vitro Determination of Affinity to CB1/CB2-Receptors\nThe in-vitro determination of the affinity of the inventive quaternary ammonium salts of substituted pyrazoline compounds to CB1/CB2-Rezeptors is carried out as described in the publication of Ruth A. Ross, Heather C. Brockie et al., “Agonist-inverse agonist characterization at CB1 and CB2 cannabinoid receptors of L-759633, L759656 and AM630”, British Journal of Pharmacology, 126, 665-672, (1999), whereby the transfected human CB1 and CB2 receptors of Receptor Biology, Inc. are used. The radioligand used for both receptors is [^3H]-CP55940. The respective parts of the description are hereby incorporated by reference and forms part of the present disclosure.\nThe affinity of the inventive substituted pyrazoline compounds to CB1/CB2 receptors was determined as described above."}, "[1]": {"molecular_target": "recombinant human cannabinoid 1 receptor (CB1) (Homo sapiens, UniProt P21554)", "sequence (P21554 whole entry)": "as above", "assay": "[35S]GTPγS binding assay, antagonism against WIN 55,212-2", "type": "biochemical", "conditions": "compound at 1 μM against WIN 55,212-2 dose response; CHO-CB1 membranes; 100% = effect of internal standard CB1-antagonist", "method": "The percentage of catalepsy is determined according to the following formula: % Catalepsy=arithmetic mean/6×100 Antagonistic Assay: Materials and Methods. Membrane Preparation:\nChinese hamster ovary (CHO) cells stably expressing recombinant human cannabinoid 1 receptor (CB1) were cultured in nutrient mixture Ham's F 12 supplemented with 10% heat-inactivated fetal bovine serum, 2 mM L-glutamine, 50 U/ml penicillin, 50 U/ml streptomycin and 0.5 mg/ml geneticin. In order to obtain cells, culture flasks were washed twice with phosphate buffered saline and scraped. Then, cells were collected by centrifugation (200×g, 10 min) and stored dry at −80° C. Cells were homogenized in ice-cold 20 mM HEPES, 10 mM EDTA (pH 7.5) and centrifuged at 40,000×g for 15 min at 4° C. The pellet was resuspended in 20 mM HEPES, 0.1 mM EDTA (pH 7.5) and centrifuged for 15 min at 4° C. The final pellet was resuspended in 20 mM HEPES, 0.1 mM EDTA (pH 7.5), and divided in aliquots and stored at −80° C. until use.\n[^35S]GTPγS Binding Assay:\nThe reaction was performed in 96-well plates. Membranes (15 µg protein/well) were incubated for 60 min at 30° C. in buffer (50 mM HEPES, 100 mM KCl, 5 mM MgCl2, 1 mM EDTA, 0.1% wt/vol bovine serum albumin, 5 μM GDP, saponin (10 μg/ml), 0.5 nM [^35S]GTPγS, pH 7.4) with compound at 1 μM final concentration in either the absence or presence of dose response curve of agonist WIN 55,212-2 between 3 nM and 3 μM. The incubation was terminated by rapid filtration through Millipore Multiscreen glass fiber FB, and rinsed two-times with ice-cold assay buffer. Filter plates were dried and 30 μl of scintillation liquid was added. Radioactivity was determined using Wallac Microbeta Trilux. Each experiment was performed at least in duplicate. A WIN 55,212-2 dose-response was systematically performed.\nThe average of basal [^35S]GTPγS binding was subtracted from all binding data. In order to compare the antagonism results from one screening campaign to another one, the difference between the maximal agonist effect of WIN 55,212-2 alone, and the maximal antagonism effect due to WIN 55,212-2 with an internal standard CB1-antagonist was defined as 100%."}}, "data": [{"smiles": "C[C@@H]1C(C(=O)NN2CCc3ccccc32)=NN(c2ccc(Cl)cc2Cl)[C@H]1c1ccc(Br)cc1", "note": "(relative stereo) [Example 7, trans-5-(4-bromophenyl)-1-(2,4-dichlorophenyl)-N-(indolin-1-yl)-4-methyl-4,5-dihydro-1H-pyrazole-3-carboxamide]", "values": [{"measurement": "IC50", "setting": "CB1 receptor", "value": 39, "unit": "nM"}, {"measurement": "Antagonism (%)", "setting": "[1]", "value": "67 ± 3", "unit": "%"}]}, {"smiles": "CC1Cc2ccccc2N1NC(=O)C1=NN(c2ccc(Cl)cc2Cl)[C@@H](c2ccc(Cl)cc2)[C@H]1C", "note": "(relative stereo) [Example 5, cis-5-(4-chlorophenyl)-1-(2,4-dichlorophenyl)-4-methyl-N-(2-methylindolin-1-yl)-4,5-dihydro-1H-pyrazole-3-carboxamide]", "values": [{"measurement": "IC50", "setting": "CB1 receptor", "value": 128, "unit": "nM"}, {"measurement": "Antagonism (%)", "setting": "[1]", "value": "16 ± 15", "unit": "%"}]}, {"smiles": "C[C@H]1C(C(=O)NN2CCc3ccccc32)=NN(c2ccc(Cl)cc2Cl)[C@H]1c1ccc(Cl)cc1", "note": "[Example 3, (4R,5R)-5-(4-chlorophenyl)-1-(2,4-dichlorophenyl)-N-(indolin-1-yl)-4-methyl-4,5-dihydro-1H-pyrazole-3-carboxamide]", "values": [{"measurement": "IC50", "setting": "CB1 receptor", "value": 100, "unit": "nM"}, {"measurement": "Antagonism (%)", "setting": "[1]", "value": 70, "unit": "%"}]}, {"smiles": "C[C@H]1C(C(=O)NN2CCc3ccccc32)=NN(c2ccc(Cl)cc2Cl)[C@H]1c1ccc(F)cc1", "note": "(relative stereo) [Example 8, cis-1-(2,4-dichlorophenyl)-5-(4-fluorophenyl)-N-(indolin-1-yl)-4-methyl-4,5-dihydro-1H-pyrazole-3-carboxamide]", "values": [{"measurement": "Antagonism (%)", "setting": "[1]", "value": 48, "unit": "%"}]}]}
